Measured values from the NIST ThermoML archive (doi:10.1021/je700670k).

Conditions: Liquid, Vibrating tube method

CCCC[N+]1(C)CCCC1.O=S(=O)([N-]S(=O)(=O)C(F)(F)F)C(F)(F)F
mass density [kg/m3]
Conditions	293.15 K	303.15 K	313.15 K	323.15 K	333.15 K	353.15 K	393.15 K
100 kPa	1409.1	1399.3	1389.5	1379.8	1370.2	1351.5	1315.2
1000 kPa	1409.7	1399.9	1390.1	1380.4	1370.9	1352.3	1316.1
2000 kPa	1410.5	1400.7	1390.9	1381.2	1371.7	1353.2	1317.1
3000 kPa	1411.2	1401.4	1391.7	1382	1372.5	1354.1	1318.1
4000 kPa	1411.9	1402.2	1392.5	1382.8	1373.4	1354.9	1319.1
5000 kPa	1412.6	1402.9	1393.3	1383.6	1374.2	1355.8	1320
7500 kPa	1414.4	1404.8	1395.2	1385.6	1376.1	1357.9	1322.5
10000 kPa	1416.1	1406.6	1397	1387.5	1378.1	1360	1324.8
15000 kPa	1419.6	1410.1	1400.7	1391.3	1382	1364.1	1329.5
20000 kPa	1423	1413.6	1404.3	1394.9	1385.8	1368.1	1333.7
25000 kPa	1426.3	1417	1407.7	1398.5	1389.5	1371.9	1338
30000 kPa	1429.6	1420.3	1411.1	1402	1393.1	1375.7	1342.2
35000 kPa	1432.8	1423.6	1414.4	1405.4	1396.6	1379.4	1346.2

CCC[N+]1(C)CCCC1.O=S(=O)([N-]S(=O)(=O)C(F)(F)F)C(F)(F)F
mass density [kg/m3]
Conditions	293.15 K	303.15 K	313.15 K	323.15 K	333.15 K	353.15 K	393.15 K
100 kPa	1438.6	1428.6	1418.6	1408.7	1399	1380	1343.2
1000 kPa	1439.3	1429.3	1419.3	1409.4	1399.7	1380.8	1344
2000 kPa	1440	1430	1420.1	1410.1	1400.5	1381.7	1344.9
3000 kPa	1440.7	1430.8	1420.9	1411	1401.4	1382.5	1345.8
4000 kPa	1441.4	1431.6	1421.7	1411.8	1402.2	1383.4	1346.8
5000 kPa	1442.1	1432.2	1422.5	1412.6	1403	1384.3	1347.8
7500 kPa	1444	1434.1	1424.3	1414.4	1405	1386.4	1350.2
10000 kPa	1445.8	1435.9	1426.3	1416.3	1407	1388.5	1352.5
15000 kPa	1449.2	1439.4	1429.9	1420.1	1410.8	1392.6	1357.1
20000 kPa	1452.6	1443	1433.4	1423.8	1414.6	1396.6	1361.5
25000 kPa	1456	1446.4	1436.9	1427.4	1418.3	1400.4	1365.8
30000 kPa	1459.2	1449.7	1440.3	1431	1421.9	1404.2	1370
35000 kPa	1462.3	1453	1443.6	1434.4	1425.4	1407.9	1374

CCn1cc[n+](C)c1.O=S(=O)([O-])C(F)(F)F [1-ethyl-3-methylimidazolium trifluoromethanesulfonate]
mass density [kg/m3]
Conditions	293.15 K	303.15 K	313.15 K	323.15 K	333.15 K	353.15 K	393.15 K
100 kPa	1379.6	1370.2	1361.1	1352	1342.8	1325.3	1291.1
1000 kPa	1380	1370.7	1361.6	1352.5	1343.3	1325.9	1291.7
2000 kPa	1380.6	1371.5	1362.2	1353.2	1344	1326.6	1292.4
3000 kPa	1381.1	1372.1	1362.9	1353.8	1344.6	1327.2	1293.2
4000 kPa	1381.8	1372.7	1363.5	1354.4	1345.3	1327.9	1293.9
5000 kPa	1382.5	1373.2	1364.1	1355.1	1346	1328.6	1294.5
7500 kPa	1383.9	1374.6	1365.7	1356.7	1347.6	1330.3	1296.4
10000 kPa	1385.4	1376.1	1367.3	1358.2	1349.2	1332	1298.1
15000 kPa	1388.2	1379	1370.2	1361.2	1352.3	1335.3	1302
20000 kPa	1391	1381.9	1373.1	1364.2	1355.4	1338.5	1305.2
25000 kPa	1393.7	1384.7	1376	1367.2	1358.4	1341.9	1308.7
30000 kPa	1396.4	1387.5	1378.8	1370.1	1361.4	1344.8	1312
35000 kPa	1399.1	1390.2	1381.6	1372.9	1364.3	1347.8	1315.3

CCC[N+]1(C)CCCCC1.O=S(=O)([N-]S(=O)(=O)C(F)(F)F)C(F)(F)F
mass density [kg/m3]
Conditions	293.15 K	303.15 K	313.15 K	323.15 K	333.15 K	353.15 K	393.15 K
100 kPa	1416.9	1407.2	1397.4	1387.6	1377	1358.5	1322.3
1000 kPa	1417.6	1407.8	1398.1	1388.3	1377.8	1359.3	1323.2
2000 kPa	1418.3	1408.6	1398.9	1389.1	1378.6	1360.2	1324.3
3000 kPa	1419	1409.3	1399.5	1389.9	1379.3	1361.1	1325.3
4000 kPa	1419.6	1410	1400.2	1390.6	1380.1	1361.9	1326.2
5000 kPa	1420.3	1410.7	1401	1391.4	1380.9	1362.8	1327.3
7500 kPa	1422	1412.5	1402.8	1393.2	1382.8	1364.7	1329.7
10000 kPa	1423.8	1414.3	1404.7	1395.1	1384.8	1366.7	1331.8
15000 kPa	1427.1	1417.7	1408.2	1398.7	1388.5	1370.7	1336.3
20000 kPa	1430.4	1421.1	1411.7	1401.9	1392.3	1374.7	1340.7
25000 kPa	1433.7	1424.4	1415.1	1405	1396	1378.4	1344.8
30000 kPa	1436.8	1427.6	1418.4	1408.6	1399.5	1382.1	1348.9
35000 kPa	1439.9	1430.7	1421.7	1412.1	1403	1385.7	1353

CCC[n+]1cccc(C)c1.O=S(=O)([N-]S(=O)(=O)C(F)(F)F)C(F)(F)F
mass density [kg/m3]
Conditions	293.15 K	303.15 K	313.15 K	323.15 K	333.15 K	353.15 K	393.15 K
100 kPa	1454.9	1444.4	1433.9	1423.7	1413.6	1393.7	1354.8
1000 kPa	1455.6	1445.3	1434.8	1424.5	1414.4	1394.6	1355.8
2000 kPa	1456.4	1446.1	1435.6	1425.3	1415.3	1395.5	1356.9
3000 kPa	1457.1	1446.8	1436.4	1426.1	1416.1	1396.4	1357.9
4000 kPa	1457.9	1447.6	1437.3	1427	1417	1397.4	1359
5000 kPa	1458.7	1448.4	1438	1427.8	1417.8	1398	1360
7500 kPa	1460.5	1450.3	1440	1429.9	1419.8	1400.2	1362.5
10000 kPa	1462.4	1452.2	1441.9	1431.9	1421.9	1402.5	1365
15000 kPa	1466.1	1455.9	1445.7	1435.7	1425.9	1406.8	1369.7
20000 kPa	1469.6	1459.6	1449.5	1439.5	1429.9	1411	1374.3
25000 kPa	1473.1	1463.1	1453.1	1443.3	1433.7	1415.1	1378.8
30000 kPa	1476.5	1466.6	1456.7	1446.9	1437.4	1419	1383.2
35000 kPa	1479.8	1470	1460.3	1450.5	1441.1	1422.9	1387.5
